Reference: patent US5582828A, “Active fractions of Cordyceps sinensis and method of isolation thereof” (Lin; Ching-Yuang, priority 1995, dated 1996)

Experiments:
cardiovascular system = settings: in vivo; cited from earlier work
[1] = test system: activated human mesangial cells; experiment: in vitro inhibition of activated (IL-1 and IL-6) human mesangial cells, [3H]-thymidine incorporation; assay type: cell-based; settings: Mesangial cell, n = 3, read-out: in vitro inhibitory action
Description: In terms of activation of mesangial cells, [^3 H]-thymidine incorporation method is used as an index of DNA synthesis. Cultured human mesangial cells are first activated by exposing them to IL-1 and IL-6. The decrease in [^3 H]-thymidine incorporation after exposure to various fractions and compounds in Cordyceps sinensis was used as the in vitro screening method for identifying potential substances which are capable of inhibiting the proliferation of activated human mesangial cells.
Two methods of investigation (in vitro and in vivo) were adopted for the invention discussed in the patent application. One of these utilizes in vitro suppression of activated human mesangial cells as its model: the activity index used is the degree to which activation by interleukins 1 and 6 is suppressed by treatment with the fractions and purified compound H1-A of Cordyceps sinensis. Isotope-labeled [^3 H]-thymidine converted into [^3 H]-thymidine incorporation is the basis by which the degree of activation of mesangial cells is determined (please see Tables 1-1 to 1-5).

Structure (SMILES): Nc1ncnc2c1ncn2[C@@H]1O[C@H](CO)[C@@H](O)[C@H]1O [Adenosine]
- cardiovascular effect (cardiovascular system): acts to relax vascular smooth muscle and causes vasodilatation

Structure (SMILES): CC[C@H](C)C(=O)O[C@H]1C[C@@H](C)C=C2C=C[C@H](C)[C@H](CC[C@@H]3C[C@@H](O)CC(=O)O3)[C@H]21 [Lovastatin, lovastatin]
- inhibition at 20 µM ([1]; Table 1-5, 20 μM): 19.8 ± 2%
- inhibition at 50 µM ([1]; Table 1-5, 50 μM): 37.1 ± 4.3%
- inhibition at 75 µM ([1]; Table 1-5, 75 μM): 60.9 ± 3.8%
- inhibition at 100 µM ([1]; Table 1-5, 100 μM): 73 ± 4%
